Source: patent US20220315771A1, “REVERSIBLE CULTURAL RELIC PROTECTION MATERIAL WITH FUNCTION OF INHIBITING GROWTH OF BACTERIA AND MOLD” (SHANGHAI UNIVERSITY, priority 2019, published 2022)

Test system: E. coli
Assay: Bacterial resistance test: solid 1 mm cube placed in E. coli solution, growth followed by OD600
Details: E. coli solution with starting OD600 0.45

Measured: OD600 value

Method: B) The block was putted into an E. coli solution with an OD600 value of 0.45, and the growth of the bacteria was observed.
The antibacterial properties of bacterial in the experimental groups 1 to 5 and the control group were tested, and the OD600 values represent the growth of bacterial cells.

CCc1occc(=O)c1O [experimental group 3, ethyl maltol]
lowest: at 12 hours, control group 0.55 | at 24 hours, control group 0.48 | at 2 days, control group 0.61 | at 3 days, control group 0.47
